Experimental data from PubChem BioAssay AID330 (DTP/NCI, 2004).
Values joined by “and” are separate entries in the source; they are usually repeats but may differ in a detail not shown here. Identical values can stand only once. Inconclusive results and toxic doses are left out.

Tested on: P388 leukemia ip, CD2F1 mice, survival T/C
Test: NCI In Vivo Anticancer Drug Screen. Data for tumor model P388 Leukemia (intraperitoneal) in CD2F1 (CDF1) mice
Conditions: endpoint: median survival time, higher = longer survival
How it was run: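 Mice carrying the transplanted tumor received test compound or vehicle. Survival was recorded in each group, and the value is the treated-group measurement divided by that of the vehicle-treated control group.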

[1] = dose: 60.0 mg/kg/injection, schedule: Q01DX005 (ip), vehicle: saline with Tween-80
[2] = dose: 25.0 mg/kg/injection, schedule: Q01DX009 (ip), vehicle: saline
[3] = dose: 12.5 mg/kg/injection, schedule: Q01DX009 (ip), vehicle: saline with Tween-80
[4] = dose: 25.0 mg/kg/injection, schedule: Q01DX009 (ip), vehicle: saline with Tween-80
[5] = dose: 50.0 mg/kg/injection, schedule: Q01DX009 (ip), vehicle: saline with Tween-80
[6] = dose: 100.0 mg/kg/injection, schedule: Q01DX009 (ip), vehicle: saline with Tween-80
[7] = dose: 200.0 mg/kg/injection, schedule: Q01DX009 (ip), vehicle: saline with Tween-80
[8] = dose: 12.5 mg/kg/injection, schedule: Q01DX001 (ip), vehicle: saline with Tween-80
[9] = dose: 50.0 mg/kg/injection, schedule: Q01DX009 (ip), vehicle: saline
[10] = dose: 100.0 mg/kg/injection, schedule: Q01DX009 (ip), vehicle: saline
[11] = dose: 200.0 mg/kg/injection, schedule: Q01DX009 (ip), vehicle: saline

With CCOC(=O)c1ccc(N(CC(O)CN)S(=O)(=O)c2ccc(C)cc2)cc1 (stereo unspecified) the T/C (dose: 15.0 mg/kg/injection, schedule: Q01DX005 (ip), vehicle: saline with Tween-80) was 102 % of control, the T/C (dose: 30.0 mg/kg/injection, schedule: Q01DX005 (ip), vehicle: saline with Tween-80) was 101 % of control and the T/C [1] was 101 % of control and 92 % of control.
In the case of NCC1OC(n2cnc3c(N)ncnc32)C(O)C1O (stereo unspecified), the T/C (dose: 6.25 mg/kg/injection, schedule: Q01DX009 (ip), vehicle: water) is reported as 100 % of control, the T/C (dose: 12.5 mg/kg/injection, schedule: Q01DX009 (ip), vehicle: water) is reported as 100 % of control and the T/C (dose: 25.0 mg/kg/injection, schedule: Q01DX009 (ip), vehicle: water) is reported as 98 % of control. The T/C (dose: 50.0 mg/kg/injection, schedule: Q01DX009 (ip), vehicle: water) was 107 % of control and the T/C (dose: 100.0 mg/kg/injection, schedule: Q01DX009 (ip), vehicle: water) was 117 % of control.
In the case of C=CCN(CC=C)C(N)=Nc1ccc(Cl)cc1, the T/C (dose: 6.25 mg/kg/injection, schedule: Q01DX009 (ip), vehicle: saline) is reported as 100 % of control, the T/C (dose: 12.5 mg/kg/injection, schedule: Q01DX009 (ip), vehicle: saline) is reported as 94 % of control and the T/C [2] is reported as 97 % of control.
With CNC(=S)N/N=C(\C)c1ccccn1 the T/C [3] was 107 % of control and 117 % of control and the T/C [4] was 116 % of control.
For [Fe].[c-]1[c-][c-][c-](Cn2nnc3ccccc32)[c-]1.[c-]1[c-][c-][cH-][c-]1, the T/C [5] was 105 % of control, the T/C [6] was 102 % of control and the T/C [7] was 95 % of control.
In the case of CCOC(=O)Nc1cc2c(c(N)n1)N=C(c1ccccc1)CN2, the T/C (dose: 2.6 mg/kg/injection, schedule: Q04DX003 (ip), vehicle: saline with Tween-80) is reported as 119 % of control, the T/C (dose: 3.0 mg/kg/injection, schedule: Q01DX005 (ip), vehicle: saline with Tween-80) is reported as 117 % of control and 123 % of control and the T/C (dose: 3.0 mg/kg/injection, schedule: Q01DX009 (ip), vehicle: saline with Tween-80) is reported as 156 % of control. For the same compound, the T/C (dose: 6.0 mg/kg/injection, schedule: Q01DX009 (ip), vehicle: saline with Tween-80) was 105 % of control, the T/C (dose: 6.0 mg/kg/injection, schedule: Q04DX003 (ip), vehicle: saline with Tween-80) was 151 % of control and the T/C (dose: 6.25 mg/kg/injection, schedule: Q01DX001 (ip), vehicle: saline with Tween-80) was 118 % of control. The T/C (dose: 9.0 mg/kg/injection, schedule: Q04DX003 (ip), vehicle: saline with Tween-80) was 173 % of control, the T/C (dose: 12.0 mg/kg/injection, schedule: Q01DX001 (ip), vehicle: saline with Tween-80) was 151 % of control and 157 % of control and the T/C [8] was 150 % of control. For the same compound, the T/C (dose: 18.0 mg/kg/injection, schedule: Q01DX001 (ip), vehicle: saline with Tween-80) was 168 % of control.
With C=CCn1c2c(c3ccccc3c1=O)C(=O)c1ccccc1-2 the T/C (dose: 6.25 mg/kg/injection, schedule: Q01DX005 (ip), vehicle: saline with Tween-80) was 97 % of control, the T/C (dose: 12.5 mg/kg/injection, schedule: Q01DX005 (ip), vehicle: saline with Tween-80) was 99 % of control and the T/C (dose: 25.0 mg/kg/injection, schedule: Q01DX005 (ip), vehicle: saline with Tween-80) was 99 % of control. The T/C (dose: 100.0 mg/kg/injection, schedule: Q01DX005 (ip), vehicle: saline with Tween-80) was 87 % of control.
For C/C=C(/C)C(=O)OC1CC(C)=CC(OC(=O)/C(C)=C\C)[C@]2(C)C1[C@](O)(C(C)C)C[C@H]2O (stereo partly specified), the T/C (dose: 2.0 mg/kg/injection, schedule: Q01DX005 (ip), vehicle: Klucel (hydroxypropylcellulose) (HPC)) was 106 % of control, the T/C (dose: 4.0 mg/kg/injection, schedule: Q01DX005 (ip), vehicle: Klucel (hydroxypropylcellulose) (HPC)) was 96 % of control and the T/C (dose: 8.0 mg/kg/injection, schedule: Q01DX005 (ip), vehicle: Klucel (hydroxypropylcellulose) (HPC)) was 99 % of control. The T/C (dose: 16.0 mg/kg/injection, schedule: Q01DX005 (ip), vehicle: Klucel (hydroxypropylcellulose) (HPC)) was 99 % of control.
In the case of [C-]#[O+].[Cl][Ru]([Cl])([Cl])([Cl])[Cl], the T/C (dose: 12.5 mg/kg/injection, schedule: Q04DX003 (ip), vehicle: water) is reported as 108 % of control, the T/C (dose: 25.0 mg/kg/injection, schedule: Q04DX003 (ip), vehicle: water) is reported as 96 % of control and the T/C (dose: 50.0 mg/kg/injection, schedule: Q04DX003 (ip), vehicle: water) is reported as 105 % of control.
COc1c(C(C)C)ccc2c1CCC1C3=C(CCC21C)C(=O)OC3 (stereo unspecified) was tested, and the T/C (dose: 6.25 mg/kg/injection, schedule: Q01DX009 (ip), vehicle: DMSO) was 109 % of control, the T/C (dose: 12.5 mg/kg/injection, schedule: Q01DX009 (ip), vehicle: DMSO) was 100 % of control and the T/C (dose: 25.0 mg/kg/injection, schedule: Q01DX009 (ip), vehicle: DMSO) was 106 % of control.
With Cc1ccccc1-n1cccc1C(=O)O the T/C [1] was 95 % of control, the T/C (dose: 120.0 mg/kg/injection, schedule: Q01DX005 (ip), vehicle: saline with Tween-80) was 93 % of control and the T/C (dose: 240.0 mg/kg/injection, schedule: Q01DX005 (ip), vehicle: saline with Tween-80) was 99 % of control.
N#CC(NCc1ccccc1)C(O)c1ccccc1 (stereo unspecified) was tested, and the T/C (dose: 25.0 mg/kg/injection, schedule: Q01DX009 (ip), vehicle: suspension in saline) was 105 % of control, the T/C (dose: 50.0 mg/kg/injection, schedule: Q01DX009 (ip), vehicle: suspension in saline) was 105 % of control and the T/C (dose: 100.0 mg/kg/injection, schedule: Q01DX009 (ip), vehicle: suspension in saline) was 105 % of control.
COc1ccc(OC)c(N2C(=O)C(Cl)=C(Cl)C2=O)c1 was tested, and the T/C [8] was 100 % of control, the T/C (dose: 25.0 mg/kg/injection, schedule: Q01DX001 (ip), vehicle: saline with Tween-80) was 100 % of control and the T/C (dose: 50.0 mg/kg/injection, schedule: Q01DX001 (ip), vehicle: saline with Tween-80) was 114 % of control.
In the case of CCCC(C#N)OC(=O)c1ccccc1 (stereo unspecified), the T/C [3] is reported as 104 % of control, the T/C [4] is reported as 100 % of control and the T/C [5] is reported as 104 % of control.
N#CC(c1ccc(Cl)cc1)C(c1ccccc1)c1ccccc1 (stereo unspecified) was tested, and the T/C [5] was 112 % of control, the T/C [6] was 107 % of control and the T/C [7] was 112 % of control.
For O=C(O)c1oc2ccccc2c1C=C(c1ccccc1)c1ccccc1, the T/C [5] was 101 % of control and the T/C [6] was 101 % of control.
With NC(c1ccccc1)S(=O)(=O)O (stereo unspecified) the T/C [2] was 121 % of control, the T/C [9] was 121 % of control and the T/C (dose: 66.7 mg/kg/injection, schedule: Q01DX009 (ip), vehicle: saline with Tween-80) was 92 % of control. The T/C (dose: 100.0 mg/kg/injection, schedule: Q01DX001 (ip), vehicle: saline) was 100 % of control, the T/C [6] was 88 % of control and the T/C [10] was 122 % of control. The T/C (dose: 150.0 mg/kg/injection, schedule: Q01DX009 (ip), vehicle: saline with Tween-80) was 91 % of control, the T/C (dose: 200.0 mg/kg/injection, schedule: Q01DX001 (ip), vehicle: saline) was 100 % of control and the T/C [11] was 121 % of control. The T/C (dose: 400.0 mg/kg/injection, schedule: Q01DX001 (ip), vehicle: saline) was 100 % of control.
For Cc1cc(=O)c2c(=O)[nH][nH]c2[nH]1, the T/C (dose: 50.0 mg/kg/injection, schedule: Q04DX003 (ip), vehicle: saline with Tween-80) was 100 % of control, the T/C (dose: 100.0 mg/kg/injection, schedule: Q04DX003 (ip), vehicle: saline with Tween-80) was 90 % of control and the T/C (dose: 200.0 mg/kg/injection, schedule: Q04DX003 (ip), vehicle: saline with Tween-80) was 90 % of control.
In the case of CCCCCCCCCCCCCCCCOc1ccc(S(=O)(=O)N/N=c2/sc(-c3ccccc3Cl)nn2C)cc1C(=O)O, the T/C [9] is reported as 100 % of control, the T/C [10] is reported as 100 % of control and the T/C [11] is reported as 96 % of control.
In the case of CCOC(=O)c1cnn(CC(OCC)OCC)c1N, the T/C (dose: 100.0 mg/kg/injection, schedule: Q01DX001 (ip), vehicle: saline with Tween-80) is reported as 102 % of control, the T/C (dose: 200.0 mg/kg/injection, schedule: Q01DX001 (ip), vehicle: saline with Tween-80) is reported as 108 % of control and the T/C (dose: 400.0 mg/kg/injection, schedule: Q01DX001 (ip), vehicle: saline with Tween-80) is reported as 109 % of control.
O=C(Nc1ccccc1)OCc1ccc(OCc2ccccc2)cc1 was tested, and the T/C [4] was 107 % of control and 94 % of control, the T/C [5] was 110 % of control and 95 % of control and the T/C [6] was 104 % of control and 89 % of control. The T/C [7] was 95 % of control.
With Cc1cc(C(=C2C=CC(=Nc3ccc(S(=O)(=O)O)cc3)C=C2)c2ccc(Nc3ccc(S(=O)(=O)O)cc3)cc2)cc(S(=O)(=O)O)c1N the T/C (dose: 50.0 mg/kg/injection, schedule: Q01DX005 (ip), vehicle: suspension in saline) was 102 % of control, the T/C (dose: 100.0 mg/kg/injection, schedule: Q01DX005 (ip), vehicle: suspension in saline) was 99 % of control and the T/C (dose: 200.0 mg/kg/injection, schedule: Q01DX005 (ip), vehicle: suspension in saline) was 99 % of control.
With CC(O)c1cc(=O)[nH][nH]1 (stereo unspecified) the T/C (dose: 50.0 mg/kg/injection, schedule: Q01DX005 (ip), vehicle: saline) was 105 % of control, the T/C (dose: 100.0 mg/kg/injection, schedule: Q01DX005 (ip), vehicle: saline) was 99 % of control and the T/C (dose: 200.0 mg/kg/injection, schedule: Q01DX005 (ip), vehicle: saline) was 110 % of control.
